Measured values: patent publication US10501449B2 (priority 2018, dated 2019)
Like-named read-outs stand apart in the source and are kept apart here.

Legend:
hROMK (human Kir1.1) [1] = molecular target: T1, hROMK (human Kir1.1) (Homo sapiens (Human), UniProt P48048); assay: cell-based; conditions: CHO T-Rex hROMK stable cell line; thallium flux; 10-point concentration response curve; read-out: Human ROMK Th Flux IC50
hROMK (human Kir1.1) [2] = molecular target: T1, hROMK (human Kir1.1); assay: cell-based; type: cell-based; conditions: whole-cell manual patch clamp, CHO T-Rex hROMK stable cell line, voltage step to -120 mV, Ba2+-subtracted hROMK current; read-out: ROMK EP IC50
hERG channels = hERG channels (Homo sapiens (Human), UniProt Q12809); assay: hERG Manual Patch Clamp Assay; type: cell-based; conditions: human, HEK 293 cells stably expressing hERG channels, pH 7.4, 1 uM, read-out: hERG EP % Inh @ 1 uM
hERG channels, sequence (Q12809 whole entry): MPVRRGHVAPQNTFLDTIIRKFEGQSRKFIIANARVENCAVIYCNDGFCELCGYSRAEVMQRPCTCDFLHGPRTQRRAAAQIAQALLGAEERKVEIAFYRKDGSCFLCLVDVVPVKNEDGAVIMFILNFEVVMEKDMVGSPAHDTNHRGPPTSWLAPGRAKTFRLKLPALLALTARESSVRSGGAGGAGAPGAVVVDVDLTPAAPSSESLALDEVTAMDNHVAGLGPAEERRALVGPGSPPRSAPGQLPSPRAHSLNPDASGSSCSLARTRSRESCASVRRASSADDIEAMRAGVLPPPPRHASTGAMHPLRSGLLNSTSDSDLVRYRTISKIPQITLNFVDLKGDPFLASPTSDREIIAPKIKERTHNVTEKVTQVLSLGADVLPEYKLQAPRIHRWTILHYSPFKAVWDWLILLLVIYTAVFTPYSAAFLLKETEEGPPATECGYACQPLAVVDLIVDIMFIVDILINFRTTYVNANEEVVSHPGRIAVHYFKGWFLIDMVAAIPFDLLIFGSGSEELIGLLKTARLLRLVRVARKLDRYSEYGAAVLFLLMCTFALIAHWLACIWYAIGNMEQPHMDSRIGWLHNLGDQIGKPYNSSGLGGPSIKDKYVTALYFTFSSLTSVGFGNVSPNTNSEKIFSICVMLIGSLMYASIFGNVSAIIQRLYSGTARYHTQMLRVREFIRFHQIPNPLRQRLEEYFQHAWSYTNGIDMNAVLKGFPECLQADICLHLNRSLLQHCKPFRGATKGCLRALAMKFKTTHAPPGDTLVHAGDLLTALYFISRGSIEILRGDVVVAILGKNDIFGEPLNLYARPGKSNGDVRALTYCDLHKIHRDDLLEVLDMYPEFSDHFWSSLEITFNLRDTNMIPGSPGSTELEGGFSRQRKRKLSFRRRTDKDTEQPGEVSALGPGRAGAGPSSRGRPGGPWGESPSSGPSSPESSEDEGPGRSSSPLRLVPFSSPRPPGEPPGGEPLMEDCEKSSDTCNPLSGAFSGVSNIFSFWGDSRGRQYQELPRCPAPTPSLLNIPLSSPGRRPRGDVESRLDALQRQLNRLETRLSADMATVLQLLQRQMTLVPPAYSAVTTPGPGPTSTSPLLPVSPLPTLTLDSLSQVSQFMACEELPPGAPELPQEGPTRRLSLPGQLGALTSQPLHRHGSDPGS

T1 sequence (P48048 whole entry): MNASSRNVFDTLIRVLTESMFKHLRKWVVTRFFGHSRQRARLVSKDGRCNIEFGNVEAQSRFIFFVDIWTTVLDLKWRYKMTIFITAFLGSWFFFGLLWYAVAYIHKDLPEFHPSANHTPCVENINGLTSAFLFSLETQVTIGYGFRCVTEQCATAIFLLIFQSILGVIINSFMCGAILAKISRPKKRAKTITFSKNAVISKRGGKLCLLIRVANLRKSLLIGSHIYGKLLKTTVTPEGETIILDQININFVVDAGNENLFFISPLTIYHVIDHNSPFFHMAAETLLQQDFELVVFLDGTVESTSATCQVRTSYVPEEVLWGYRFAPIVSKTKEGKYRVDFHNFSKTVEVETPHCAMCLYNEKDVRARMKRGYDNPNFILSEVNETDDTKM

Cc1cn(-c2ncc(CN3CCN[C@H](c4ccc5c(c4C)COC5=O)C3)cn2)c(C)n1 [Example 139-I, (R)-5-(4-((2-(2,4-dimethyl-1H-imidazol-1-yl)pyrimidin-5-yl)methyl)piperazin-2-yl)-4-methylisobenzofuran-1(3H)-one]
IC50 (hROMK (human Kir1.1) [1]): 36 nM | IC50 (hROMK (human Kir1.1) [2]): 30 nM | inhibition at 1 µM (hERG channels): 6.6%

COc1cc(-n2ncc(CN3C[C@@H](c4ccc5c(c4C)COC5=O)N[C@@H](C)C3)n2)ncc1C#N [Example 107-I, 4-methoxy-6-(4-(((3S,5R)-3-methyl-5-(4-methyl-1-oxo-1,3-dihydroisobenzofur-an-5-yl)piperazin-1-yl)methyl)-2H-1,2,3-triazol-2-yl)nicotinonitrile]
IC50 (hROMK (human Kir1.1) [1]): 26 nM | IC50 (hROMK (human Kir1.1) [2]): 18 nM | inhibition at 1 µM (hERG channels): 13%

Cc1cc(-c2cc(CN3CC[C@@H](O)[C@H](c4ccc5c(c4C)COC5=O)C3)on2)ncc1C#N [Example 193-I, 6-(5-(((3R,4R)-4-hydroxy-3-(4-methyl-1-oxo-1,3-dihydroisobenzofuran-5-yl)piperidin-1-yl)methyl)isoxazol-3-yl)-4-methylnicotinonitrile]
IC50 (hROMK (human Kir1.1) [1]): 44 nM | IC50 (hROMK (human Kir1.1) [2]): 20 nM | inhibition at 1 µM (hERG channels): 14%

Cc1cn(-c2ncc(CN3CCN[C@H](c4ccc5c(c4C)COC5=O)C3)cn2)cn1 [Example 216-I]
IC50 (hROMK (human Kir1.1) [1]): 25 nM | IC50 (hROMK (human Kir1.1) [2]): 14 nM | inhibition at 1 µM (hERG channels): 5.6%

COc1nc(-n2cnc(CN3C[C@@H](c4ccc5c(c4C)COC5=O)N[C@@H](C)C3)c2)ncc1C#N [Example 103-I, 4-methoxy-2-(4-(((3S,5R)-3-methyl-5-(4-methyl-1-oxo-1,3-dihydroisobenzofur-an-5-yl)piperazin-1-yl)methyl)-1H-imidazol-1-yl)pyrimidine-5-carbonitrile]
IC50 (hROMK (human Kir1.1) [1]): 25 nM | IC50 (hROMK (human Kir1.1) [2]): 29 nM | inhibition at 1 µM (hERG channels): 14%

COc1cc(-n2cnc(CN3CCN[C@H](c4ccc5c(c4C)COC5=O)C3)c2)ncc1C#N [Example 14-I, (R)-4-methoxy-6-(4-((3-(4-methyl-1-oxo-1,3-dihydroisobenzofuran-5-yl)piperazin-1-yl)methyl)-1H-imidazol-1-yl)nicotinonitrile]
IC50 (hROMK (human Kir1.1) [1]): 36 nM | IC50 (hROMK (human Kir1.1) [2]): 51 nM | inhibition at 1 µM (hERG channels): 1.7%

COc1cc(-n2cnc(CN3C[C@@H](c4ccc5c(c4C)COC5=O)N[C@@H](C)C3)c2)ccn1 [Example 126-I, 5-((2R,6S)-4-((1-(2-methoxypyridin-4-yl)-1H-imidazol-4-yl)methyl)-6-methylpiperazin-2-yl)-4-methylisobenzofuran-1(3H)-one]
IC50 (hROMK (human Kir1.1) [1]): 34 nM | IC50 (hROMK (human Kir1.1) [2]): 17 nM | inhibition at 1 µM (hERG channels): 7.8%

Cc1nc(-n2cnc(CN3C[C@@H](c4ccc5c(c4C)COC5=O)N[C@@H](C)C3)c2)ncc1C#N [Example 164-I, 4-methyl-2-(4-(((3S,5R)-3-methyl-5-(4-methyl-1-oxo-1,3-dihydroisobenzofuran-5-yl)piperazin-1-yl)methyl)-1H-imidazol-1-yl)pyrimidine-5-carbonitrile]
IC50 (hROMK (human Kir1.1) [1]): 31 nM | IC50 (hROMK (human Kir1.1) [2]): 30 nM | inhibition at 1 µM (hERG channels): 6%

Cc1cc(-n2cc(CN3CCN[C@H](c4ccc5c(c4C)COC5=O)C3)nn2)ncc1C#N [Example 23-I, (R)-4-methyl-6-(4-((3-(4-methyl-1-oxo-1,3-dihydroisobenzofuran-5-yl)piperazin-1-yl)methyl)-1H-1,2,3-triazol-1-yl)nicotinonitrile]
IC50 (hROMK (human Kir1.1) [1]): 30 nM | IC50 (hROMK (human Kir1.1) [2]): 4.9 nM | inhibition at 1 µM (hERG channels): 12%

Cc1cc(-n2cc(CN3CCO[C@H](c4ccc5c(c4C)COC5=O)C3)cn2)ncc1C#N [Example 1-I, (R)-4-methyl-6-(4-((2-(4-methyl-1-oxo-1,3-dihydroisobenzofuran-5-yl)morpholino)methyl)-1H-pyrazol-1-yl)nicotinonitrile]
IC50 (hROMK (human Kir1.1) [1]): 14 nM | IC50 (hROMK (human Kir1.1) [2]): 11 nM | inhibition at 1 µM (hERG channels): 26%

COc1cc(-n2ncc(CN3CCN[C@H](c4ccc5c(c4C)COC5=O)C3)n2)ncc1C#N [Example 168-I, (R)-4-methoxy-6-(4-((3-(4-methyl-1-oxo-1,3-dihydroisobenzofuran-5-yl)piperazin-1-yl)methyl)-2H-1,2,3-triazol-2-yl)nicotinonitrile]
IC50 (hROMK (human Kir1.1) [1]): 20 nM | IC50 (hROMK (human Kir1.1) [2]): 29 nM | inhibition at 1 µM (hERG channels): 22%

Cc1cc(-n2cc(CN3C[C@H](CO)N(C)[C@H](c4ccc5c(c4C)COC5=O)C3)cn2)ncc1C#N [Example 195-I, 6-(4-(((3R,5R)-3-(hydroxymethyl)-4-methyl-5-(4-methyl-1-oxo-1,3-dihydroisobenzofuran-5-yl)piperaizn-1-yl)methyl)-1H-pyrazol-1-yl)-4-methylnicotinonitrile]
IC50 (hROMK (human Kir1.1) [1]): 66 nM | IC50 (hROMK (human Kir1.1) [2]): 79 nM | inhibition at 1 µM (hERG channels): 5.9%

COc1cc(-n2ncc(CN3CCN[C@H](c4ccc5c(c4C)COC5=O)C3)n2)nc(C)c1C#N [Example 188-I, (R)-4-methoxy-2-methyl-6-(4-((3-(4-methyl-1-oxo-1,3-dihydroisobenzofuran-5-yl)piperazin-1-yl)methyl)-2H-1,2,3-triazol-2-yl)nicotinonitrile]
IC50 (hROMK (human Kir1.1) [1]): 37 nM | IC50 (hROMK (human Kir1.1) [2]): 18 nM | inhibition at 1 µM (hERG channels): 18%

Cc1cc(-n2cc(CN3C[C@@H](c4ccc5c(c4C)COC5=O)N[C@@H](C)C3)cn2)ccn1 [Example 102-I, 4-methyl-5-((2R,6S)-6-methyl-4-((1-(2-methylpyridin-4-yl)-1H-pyrazol-4-yl)methyl)piperazin-2-yl)isobenzofuran-1(3H)-one]
IC50 (hROMK (human Kir1.1) [1]): 48 nM | IC50 (hROMK (human Kir1.1) [2]): 17 nM | inhibition at 1 µM (hERG channels): 5.6%

Cc1cn(-c2ccc(CN3CCN[C@H](c4ccc5c(c4C)COC5=O)C3)cn2)cn1 [Example 66-I, (R)-4-methyl-5-(4-((6-(4-methyl-1H-imidazol-1-yl)pyridin-3-yl)methyl)piperazin-2-yl)iso-benzofuran-1(3H)-one]
IC50 (hROMK (human Kir1.1) [1]): 33 nM | IC50 (hROMK (human Kir1.1) [2]): 4.7 nM | inhibition at 1 µM (hERG channels): 0%

COc1cc(-n2cc(CN3CC[C@@H](O)[C@H](c4ccc5c(c4C)COC5=O)C3)n(C)c2=O)ncc1C#N [Example 171-I, 6-(4-(((3R,4R)-4-hydroxy-3-(4-methyl-1-oxo-1,3-dihydroisobenzofuran-5-yl)piperidin-1-yl)methyl)-3-methyl-2-oxo-2,3-dihydro-1H-imidazol-1-yl)-4-methoxynicotinonitrile]
IC50 (hROMK (human Kir1.1) [1]): 27 nM | IC50 (hROMK (human Kir1.1) [2]): 26 nM | inhibition at 1 µM (hERG channels): 16%

Cc1nc(-n2ncc(CN3C[C@@H](c4ccc5c(c4C)COC5=O)N[C@@H](C)C3)n2)nc(C)c1C#N [Example 151-I, 4,6-dimethyl-2-(4-(((3S,5R)-3-methyl-5-(4-methyl-1-oxo-1,3-dihydroisobenzofuran-5-yl)piperazin-1-yl)methyl)-2H-1,2,3-triazol-2-yl)pyrimidine-5-carbonitrile]
IC50 (hROMK (human Kir1.1) [1]): 43 nM | IC50 (hROMK (human Kir1.1) [2]): 64 nM | inhibition at 1 µM (hERG channels): 5.1%

Cc1nn(-c2ncc(CN3CCN[C@H](c4ccc5c(c4C)COC5=O)C3)cn2)cc1C#N [Example 221-I, (R)-3-methyl-1-(5-((3-(4-methyl-1-oxo-1,3-dihydroisobenzofuran-5-yl)piperazin-1-yl)methyl)pyrimidin-2-yl)-1H-pyraozle-4-carbonitrile]
IC50 (hROMK (human Kir1.1) [1]): 22 nM | IC50 (hROMK (human Kir1.1) [2]): 13 nM | inhibition at 1 µM (hERG channels): 5.4%
